Measurements from the NIST ThermoML archive (doi:10.1021/acs.jced.6b00688).

Assay: xn = mol fraction of the nth substance listed
Conditions: 100 kPa, Liquid; for viscosity: Falling or rolling sphere viscometry; for mass density: Vibrating tube method

OCC1CCCCC1 [cyclohexylmethanol] + CC1CCCCC1
Conditions | mass density [kg/m3] | viscosity [mPa·s]
293.15 K, x2 = 0.0998 | 914.04 | 22.56
293.15 K, x2 = 0.1996 | 898.07 | 12.82
293.15 K, x2 = 0.2999 | 881.82 | 7.902
293.15 K, x2 = 0.3998 | 865.56 | 4.953
293.15 K, x2 = 0.5004 | 848.97 | 3.225
293.15 K, x2 = 0.6007 | 832.61 | 2.164
293.15 K, x2 = 0.6997 | 816.64 | 1.555
293.15 K, x2 = 0.7984 | 800.82 | 1.159
293.15 K, x2 = 0.9012 | 784.55 | 0.891
298.15 K, x2 = 0.0998 | 910.42 | 17.67
298.15 K, x2 = 0.1996 | 894.34 | 10.28
298.15 K, x2 = 0.2999 | 877.99 | 6.5
298.15 K, x2 = 0.3998 | 861.58 | 4.176
298.15 K, x2 = 0.5004 | 844.91 | 2.832
298.15 K, x2 = 0.6007 | 828.51 | 1.92
298.15 K, x2 = 0.6997 | 812.48 | 1.407
298.15 K, x2 = 0.7984 | 796.58 | 1.065
298.15 K, x2 = 0.9012 | 780.24 | 0.817
303.15 K, x2 = 0.0998 | 906.77 | 14.09
303.15 K, x2 = 0.1996 | 890.57 | 8.368
303.15 K, x2 = 0.2999 | 874.13 | 5.421
303.15 K, x2 = 0.3998 | 857.62 | 3.567
303.15 K, x2 = 0.5004 | 840.88 | 2.446
303.15 K, x2 = 0.6007 | 824.38 | 1.715
303.15 K, x2 = 0.6997 | 808.29 | 1.279
303.15 K, x2 = 0.7984 | 792.32 | 0.98
303.15 K, x2 = 0.9012 | 775.91 | 0.769
308.15 K, x2 = 0.0998 | 903.08 | 11.37
308.15 K, x2 = 0.1996 | 886.77 | 6.888
308.15 K, x2 = 0.2999 | 870.24 | 4.567
308.15 K, x2 = 0.3998 | 853.63 | 3.075
308.15 K, x2 = 0.5004 | 836.92 | 2.155
308.15 K, x2 = 0.6007 | 820.24 | 1.542
308.15 K, x2 = 0.6997 | 804.07 | 1.167
308.15 K, x2 = 0.7984 | 788.03 | 0.905
308.15 K, x2 = 0.9012 | 771.56 | 0.718
313.15 K, x2 = 0.0998 | 899.36 | 9.257
313.15 K, x2 = 0.1996 | 882.93 | 5.729
313.15 K, x2 = 0.2999 | 866.31 | 3.884
313.15 K, x2 = 0.3998 | 849.61 | 2.672
313.15 K, x2 = 0.5004 | 832.82 | 1.912
313.15 K, x2 = 0.6007 | 816.06 | 1.393
313.15 K, x2 = 0.6997 | 799.82 | 1.069
313.15 K, x2 = 0.7984 | 783.71 | 0.839
313.15 K, x2 = 0.9012 | 767.17 | 0.672
318.15 K, x2 = 0.0998 | 895.6 | 7.638
318.15 K, x2 = 0.1996 | 879.05 | 4.813
318.15 K, x2 = 0.2999 | 862.35 | 3.332
318.15 K, x2 = 0.3998 | 845.56 | 2.34
318.15 K, x2 = 0.5004 | 828.69 | 1.706
318.15 K, x2 = 0.6007 | 811.86 | 1.264
318.15 K, x2 = 0.6997 | 795.54 | 0.983
318.15 K, x2 = 0.7984 | 779.36 | 0.779
318.15 K, x2 = 0.9012 | 762.76 | 0.631
323.15 K, x2 = 0.0998 | 891.81 | 6.35
323.15 K, x2 = 0.1996 | 875.15 | 4.082
323.15 K, x2 = 0.2999 | 858.35 | 2.882
323.15 K, x2 = 0.3998 | 841.47 | 2.064
323.15 K, x2 = 0.5004 | 824.52 | 1.539
323.15 K, x2 = 0.6007 | 807.62 | 1.152
323.15 K, x2 = 0.6997 | 791.23 | 0.907
323.15 K, x2 = 0.7984 | 774.99 | 0.726
323.15 K, x2 = 0.9012 | 758.33 | 0.594
328.15 K, x2 = 0.0998 | 887.97 | 5.322
328.15 K, x2 = 0.1996 | 871.24 | 3.491
328.15 K, x2 = 0.2999 | 854.31 | 2.512
328.15 K, x2 = 0.3998 | 837.35 | 1.831
328.15 K, x2 = 0.5004 | 820.32 | 1.379
328.15 K, x2 = 0.6007 | 803.35 | 1.054
328.15 K, x2 = 0.6997 | 786.89 | 0.839
328.15 K, x2 = 0.7984 | 770.58 | 0.679
328.15 K, x2 = 0.9012 | 753.86 | 0.561
333.15 K, x2 = 0.0998 | 884.09 | 4.526
333.15 K, x2 = 0.1996 | 867.26 | 3.011
333.15 K, x2 = 0.2999 | 850.23 | 2.204
333.15 K, x2 = 0.3998 | 833.14 | 1.634
333.15 K, x2 = 0.5004 | 816.09 | 1.25
333.15 K, x2 = 0.6007 | 799.05 | 0.967
333.15 K, x2 = 0.6997 | 782.43 | 0.778
333.15 K, x2 = 0.7984 | 766.13 | 0.637
333.15 K, x2 = 0.9012 | 749.37 | 0.531
